Data: patent US5369111A, “Modulator agent and use thereof” (University of Vermont, priority 1992, dated 1994)

Columns and labels:
RCC-2 and RCC-5 cells = assay: Inhibition of population growth of rat colon cancer cell lines RCC-2 and RCC-5; assay type: cell-based; details: RCC-2 and RCC-5
Description: The analogs were examined in a panel of tumor cell lines of both intrinsic and acquired drug resistance, as described in Table 1. The rat colon adenocarcinoma cell lines RCC-2 and RCC-5 (ref. 13) were maintained in Ham's F12 medium supplemented with 5% heat-inactivated, fetal bovine serum (Sterile Systems. Hyclone, Logan, Utah). The two rat colon cancer cell lines differ in their degree of cellular differentiation; whereas the RCC-2 cell line is undifferentiated, the RCC-5 cell line is highly mucinous. The human epidermoid carcinoma cell line KB-3-1 and its MDR variant KB-Vl, selected by VBL treatment (ref. 14; courtesy of M. Gottesman. National Cancer Institute), was maintained in DMEM medium supplemented with 10%, heat-inactivated, fetal bovine serum. […]
Mid-exponential cultures were used for all assays. […] Cytotoxicity was determined by quantitation of population growth after 72 h incubation by electronic particle counter (Coulter Electronics, Hialeah, Fla.). […] Colonies were scored 7-11 days later. […]
FIG. 7 represents the toxicity of analog C-20'-deoxy vincovaline (A) and C-20'-deoxy deethyl vincovaline (B) to population growth of the rat colon adenocarcinoma cell lines. The congener was added at various concentrations to RCC-2 (.cndot.) and RCC-5 (Δ) cell cultures and the population cell number was determined 72 hours later. […]

RCC-5 cells = assay: Modulation of intrinsic drug resistance, RCC-5; assay type: cell-based, rat; details: VCR
Experimental: (§1) Mid-exponential cultures were used for all assays. The RCC-2 and RCC-5 cell lines were seeded into 24-well plates at 2×10^4 cells/well and allowed to attach to the substratum for 16-18 h prior to treatment. The S180 cell lines were seeded into culture tubes at 1×10^5 cells/ml and treated immediately. Cytotoxicity was determined by quantitation of population growth after 72 h incubation by electronic particle counter (Coulter Electronics, Hialeah, Fla.). The human tumor cell lines were used in a clonogenic assay for cytotoxicity. Cells were seeded at 300 cells/dish, incubated overnight and then treated. Colonies were scored 7-11 days later. In all assays of analog modulation of drug sensitivity, the analog was added minutes prior to the addition of cytotoxic drug.
*calculated as the IC50 of the drug alone divided by the IC50 o
the [drug modulator] combination. Data are presented from tretments with
the nontoxic concentration limit of each analog as noted.
FIG. 9 represents the modulation of VCR sensitivity in the RCC-12 (A) and RCC-5 (B) cell lines by the analog C-20'-deoxy deethyl vincovaline. Population growth was determined after 72 hours incubation in the absence (o), or presence of 10 μM (o), 20 μM (Δ), or 50 μM of analog. Data presented are from a typical experiment.

KB-3-1 cells = assay: Modulation of drug sensitivity, KB-3-1; assay type: cell-based, human; details: ADM, VBL, VCR
Experimental: as §1
FIG. 10 represents the potency of the analog C-20'-deoxy deethyl vincovaline as a modulator of the drug sensitivity of various cell lines: the parental S180 cell line: the two rat colon cancer cell lines, RCC-2 and RCC-5; and the human epidermoid carcinoma cell line KB-3-1 and its MDR cell strain KB-V1, which expresses very high levels of drug resistance (200-500 fold). The enhancement of sensitivity was calculated as the sensitivity index =IC50 of the drug alone divided by the IC50 of the drug+analog. […] The cytotoxicity of drug and analog treatments in the KB cell lines were measured by cloning efficiencies. […]

S180/A10 cells = assay: Modulator potency in MDR cells: reversal of acquired resistance, S180/A10; assay type: cell-based, murine
Outline: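 S180/A3 and S180/A10 MDR cells at 1×10^5 cells/ml exposed to a modulator concentration range, added minutes before VBL, VCR or ADM at parental-cell IC70s. Growth counted by electronic particle counter after 72 h. Value is the minimal modulator concentration restoring 70% growth inhibition; mean of 2-3 experiments.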

[1] = system: S180 MDR cell strains A3 and A10; assay: Modulation of acquired drug resistance in the S180 MDR cell strains A3 and A10; assay type: cell-based, murine; details: VBL, VCR and ADM
Outline: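 MDR S180 lines in tubes (1×10^5 cells/ml) exposed to graded modulator added minutes before ADM, VBL or VCR at parental IC70s (2.0×10^-7 M ADM, 1.5×10^-8 M VBL, 4.5×10^-8 M VCR). Growth counted electronically at 72 h. Reversing concentration = minimum modulator giving 70% inhibition; duplicates, two experiments.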

**Q.** With `CC[C@]12C=CCN3CC[C@@]4(c5cc([C@]6(C(=O)OC)C[C@H]7CCCN(CCc8c6[nH]c6ccccc86)C7)c(OC)cc5N(C)[C@H]4[C@@](O)(C(=O)OC)[C@@H]1OC(C)=O)[C@@H]32` [analog n° 352, C-20'-deoxy-20'-deethyl-C-14', 16'-epi-VBL] as the compound, how does the “reduction in cytotoxicity to the colon cancer cell lines compared to C-20'-deoxy vincovaline” value (RCC-2 and RCC-5 cells) read?
**A.** The value was 10 fold.

**Q.** What about the “maximum sensitization to VCR” value (RCC-5 cells; RCC-5) of the same compound?
**A.** Its value is 28 fold.

**Q.** What about the “concentration overcoming the greater intrinsic resistance of RCC-5 to VCR” value (RCC-5 cells; RCC-5 compared to RCC-2) of the same compound?
**A.** The value was 10 to 20 µM.

**Q.** And the “sensitization to all three drugs” value (KB-3-1 cells)?
**A.** The value was 3-5 fold.

**Q.** What about the “reversal of high level ADM resistance (in words)” value (S180/A10 cells; A10 cells, 90 fold ADM resistance) of the same compound?
**A.** Its value is “can reverse high level (90-fold) ADM resistance in MDR cells”.

**Q.** And the “reversal of high level ADM resistance” value (S180/A10 cells; ADM, 90-fold resistance, A10)?
**A.** Its value is 80%.

**Q.** What about the “range of resistance levels over which parental sensitivity was restored” value [1] of the same compound?
**A.** The value was 3-17 fold.
